# How the values were obtained:
# Assay in all cases: ≥ marks a high value that may be exact or a test limit, other limits are often not marked, values filed in µg/mL are converted to µM
# [1] = tested on: Salmonella enterica subsp. enterica serovar Choleraesuis C78-1
# [2] = tested on: Shigella flexneri CICC 21534
# [3] = tested on: Listeria monocytogenes CICC 21533
# [4] = tested on: Salmonella typhimurium SL1344
# [5] = tested on: Bacillus subtilis CICC 24434
# [6] = tested on: Staphylococcus aureus ATCC 25923
# [7] = tested on: Escherichia coli E44813
# [8] = tested on: Staphylococcus epidermidis LY8
# [9] = tested on: Pasteurella multocida C48-3
# [10] = tested on: Acinetobacter baumannii ATCC 19606
# [11] = tested on: Pseudomonas aeruginosa ATCC 47085
# [12] = tested on: Escherichia coli D31 CGSC 5165
# [13] = tested on: Staphylococcus aureus ATCC 35556
# [14] = tested on: Escherichia coli ATCC 25922
# [15] = tested on: Candida albicans FRR 5580
# [16] = tested on: Pseudomonas aeruginosa ATCC 9027
# [17] = tested on: Staphylococcus aureus
# [18] = tested on: Mannheimia haemolytica 82-25
# [19] = tested on: Staphylococcus aureus NCTC 9144
# [20] = tested on: Pseudomonas aeruginosa NCTC 13437
# [21] = tested on: Klebsiella pneumoniae NCTC 13368
# [22] = tested on: Enterococcus faecalis NCTC 775
# [23] = tested on: Klebsiella pneumoniae M6
# [24] = tested on: Escherichia coli NCTC 12923
# [25] = tested on: Acinetobacter baumannii AYE
# [26] = tested on: Acinetobacter baumannii ATCC 17987
# [27] = tested on: Enterococcus faecalis NCTC 12201
# [28] = tested on: Pseudomonas syringae pv. tomato
# [29] = tested on: Pseudomonas aeruginosa PAO1
# [30] = tested on: Staphylococcus aureus 15
# [31] = tested on: Enterococcus faecalis NCTC 12204
# [32] = tested on: Xanthomonas axonopodis pv. phaseoli
# [33] = tested on: Streptococcus agalactiae CICC 10465
# [34] = tested on: Escherichia coli UB1005
# [35] = tested on: Lacticaseibacillus rhamnosus 7469
# [36] = tested on: Pseudomonas aeruginosa ATCC 27853
# [37] = tested on: Salmonella enterica subsp. enterica serovar Pullorum ATCC 7913
# [38] = tested on: Streptococcus thermophilus YM-C
# [39] = tested on: Salmonella enterica subsp. enterica serovar Typhimurium C77-31
# [40] = tested on: Salmonella enterica subsp. enterica serovar Typhimurium ATCC 14028
# [41] = tested on: Staphylococcus aureus ATCC 29213
# [42] = tested on: Staphylococcus epidermidis ATCC 12228
# [43] = tested on: Escherichia coli 078
# [44] = tested on: Streptococcus agalactiae
compound,measurement,setting,value
CC[C@H](C)[C@H](NC(=O)[C@@H](NC(=O)[C@H](Cc1ccccc1)NC(=O)[C@H](CCCCN)NC(=O)[C@@H]1CCCN1C(=O)[C@H](CCCCN)NC(=O)[C@H](CCC(N)=O)NC(=O)[C@@H]1CCCN1C(=O)[C@H](CCCN=C(N)N)NC(=O)[C@H](CCCN=C(N)N)NC(=O)[C@@H](NC(=O)[C@H](CCCN=C(N)N)NC(=O)[C@H](Cc1c[nH]c2ccccc12)NC(=O)[C@H](CC(C)C)NC(=O)[C@H](CC(C)C)NC(=O)[C@H](CC(=O)O)NC(=O)[C@@H](NC(=O)[C@@H](NC(=O)[C@@H](N)CCCN=C(N)N)[C@@H](C)CC)[C@@H](C)CC)C(C)C)C(C)C)C(=O)N[C@H](C(=O)N[C@@H](Cc1c[nH]c2ccccc12)C(=O)N[C@H](C(=O)N[C@@H](CCCN=C(N)N)C(=O)O)C(C)C)C(C)C [RIIDLLWRVRRPQKPKFVIVWVR],MIC,[1],0.262 µM
same,MIC,[2],25.2 µM
same,MIC,[3],≥ 42 µM
same,MIC,[4],0.524 µM
same,MIC,[5],0.524 µM
same,MIC,[6],0.0084 µM
same,MIC,[7],4.2 µM
same,MIC,[8],8.4 µM
same,MIC,[9],1.05 µM
CC[C@H](C)[C@H](NC(=O)[C@H](CCCN=C(N)N)NC(=O)CNC(=O)[C@H](CC(C)C)NC(=O)[C@@H](NC(=O)[C@H](C)NC(=O)[C@H](CCCN=C(N)N)NC(=O)CNC(=O)[C@H](C)NC(=O)CNC(=O)[C@H](CCCN=C(N)N)NC(=O)[C@H](CCSC)NC(=O)[C@H](CCCN=C(N)N)NC(=O)[C@@H](NC(=O)[C@H](Cc1c[nH]c2ccccc12)NC(=O)[C@H](CC(C)C)NC(=O)[C@H](CCC(=O)O)NC(=O)[C@H](CCCN=C(N)N)NC(=O)[C@H](CC(C)C)NC(=O)[C@@H](N)CC(C)C)[C@@H](C)O)C(C)C)C(=O)N[C@@H](CCCN=C(N)N)C(=O)NCC(=O)N[C@@H](CC(C)C)C(=O)N[C@@H](CC(C)C)C(=O)O [LLRELWTRMRGAGRAVLGRIRGLL],MIC,[10],0.94 µM
same,MIC,[11],15 µM
same,MIC,[12],0.94 µM
same,MIC,[13],1.88 µM
NCCCC[C@H](NC(=O)[C@H](Cc1c[nH]c2ccccc12)NC(=O)[C@H](Cc1c[nH]c2ccccc12)NC(=O)[C@H](CCCCN)NC(=O)[C@H](Cc1c[nH]c2ccccc12)NC(=O)[C@H](Cc1c[nH]c2ccccc12)NC(=O)[C@H](CCCN=C(N)N)NC(=O)[C@H](Cc1c[nH]c2ccccc12)NC(=O)[C@H](Cc1c[nH]c2ccccc12)NC(=O)[C@H](CCCN=C(N)N)NC(=O)[C@H](CCCCN)NC(=O)[C@@H](N)CCCN=C(N)N)C(=O)N[C@@H](CCCN=C(N)N)C(N)=O [RKRWWRWWKWWKR],MIC,[14],7.46 µM
same,MIC,[15],29.8 µM
same,MIC,[16],7.46 µM
same,MIC,[17],5.28 µM
same,MIC,[6],7.46 µM
C[C@H](N)C(=O)N[C@@H](C)C(=O)N[C@@H](CC(=O)O)C(=O)N[C@@H](CC(=O)O)C(=O)N[C@@H](CC(=O)O)C(=O)N[C@@H](CC(=O)O)C(=O)N[C@@H](CC(=O)O)C(=O)O [AADDDDD],MIC,[18],30 µM
CC[C@H](C)[C@H](NC(=O)[C@H](CCC(=O)O)NC(=O)[C@H](CC(N)=O)NC(=O)[C@H](CCCCN)NC(=O)[C@H](CC(C)C)NC(=O)[C@H](CCCCN)NC(=O)[C@H](CCCCN)NC(=O)[C@H](CCCN=C(N)N)NC(=O)[C@@H](NC(=O)[C@H](CCCCN)NC(=O)[C@H](CCC(=O)O)NC(=O)[C@H](CCCCN)NC(=O)[C@H](Cc1c[nH]c2ccccc12)NC(=O)[C@H](C)N)[C@@H](C)CC)C(=O)N[C@@H](CCCCN)C(=O)N[C@@H](CCCCN)C(=O)N[C@@H](CCCCN)C(=O)NCC(=O)N[C@@H](CCCN=C(N)N)C(=O)N[C@@H](CCCCN)C(=O)N[C@@H](C)C(=O)N[C@H](C(=O)N[C@H](C(=O)N[C@@H](C)C(=O)N[C@@H](Cc1c[nH]c2ccccc12)C(=O)O)[C@@H](C)CC)C(C)C [AWKEKIRKKLKNEIKKKGRKAVIAW],MIC,[19],5.24 µM
same,MIC,[20],≥ 42 µM
same,MIC,[21],≥ 42 µM
same,MIC,[22],≥ 42 µM
same,MIC,[23],≥ 42 µM
same,MIC,[24],2.62 µM
same,MIC,[25],2.62 µM
same,MIC,[26],5.24 µM
same,MIC,[27],≥ 42 µM
same,MIC,[28],0.164 µM
same,MIC,[29],> 42 µM
same,MIC,[30],≥ 42 µM
same,MIC,[31],≥ 42 µM
same,MIC,[32],0.164 µM
CC[C@H](C)[C@H](NC(=O)[C@H](CC(C)C)NC(=O)[C@@H](NC(=O)[C@@H](N)CC(=O)O)[C@@H](C)CC)C(=O)N[C@H](C(=O)N[C@H](C(=O)NCC(=O)NCC(N)=O)C(C)C)[C@@H](C)CC [DILIIVGG],MIC,[14],> 64 µM
same,MIC,[33],≥ 64 µM
same,MIC,[34],≥ 64 µM
same,MIC,[35],≥ 64 µM
same,MIC,[36],> 64 µM
same,MIC,[37],≥ 64 µM
same,MIC,[6],> 64 µM
same,MIC,[38],≥ 64 µM
same,MIC,[39],≥ 64 µM
same,MIC,[40],> 64 µM
same,MIC,[41],> 64 µM
same,MIC,[42],> 64 µM
same,MIC,[43],≥ 64 µM
same,MIC,[44],≥ 64 µM

# — DBAASP
